{
  "source": "patent US6054464A",
  "about": "(priority 1996, dated 2000)",
  "target": "α7 nAChR subtype (Rattus norvegicus, UniProt Q05941)",
  "sequence (Q05941 23-502 limits assumed)": "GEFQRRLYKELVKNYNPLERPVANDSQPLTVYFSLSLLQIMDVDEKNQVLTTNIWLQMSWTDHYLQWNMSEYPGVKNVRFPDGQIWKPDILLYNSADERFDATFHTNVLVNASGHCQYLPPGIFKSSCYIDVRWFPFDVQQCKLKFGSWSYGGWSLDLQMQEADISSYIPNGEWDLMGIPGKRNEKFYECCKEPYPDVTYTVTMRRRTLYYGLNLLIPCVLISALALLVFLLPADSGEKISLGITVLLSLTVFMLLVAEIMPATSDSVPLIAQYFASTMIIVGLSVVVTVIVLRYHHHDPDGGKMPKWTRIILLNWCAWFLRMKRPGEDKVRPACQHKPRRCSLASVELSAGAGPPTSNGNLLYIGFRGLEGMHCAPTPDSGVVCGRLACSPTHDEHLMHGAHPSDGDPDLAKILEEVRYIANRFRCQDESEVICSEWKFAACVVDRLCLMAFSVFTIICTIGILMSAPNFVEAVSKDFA",
  "format": "binding",
  "note": "pKd: −log10 of the molar value.",
  "data": [
    {"substance": "[^125 I]-α-Bungarotoxin [[^125 I]-α-BTX]", "values": [
      {"measurement": "pKd", "value": 8.78}
    ]}
  ]
}
